The target in one data set is T1, cyclin D1/cdk 4 enzyme (Homo sapiens, UniProt P11802).
T1 construct: made in house; host or cells: Sf9 insect cells, recombinant baculovirus
Briefly: CDK4 ELISA kinase assay (phospho-Rb ser 795 detection). It is filed as biochemical. As to conditions: In Vitro Enzyme Assays, 200 μM ATP, read-out: CDK4 IC50. Put shortly:
(§1)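 GST-Rb C-terminal fragment coated on plates; partially purified Sf9-expressed cyclin D1/CDK4, cyclin E/CDK2 or cyclin B/CDK1 with 200 μM ATP, pH 7.5 HEPES/MgCl2 buffer, 1 h at 30 °C; screen compound final 10 μg/ml. Phospho-Rb Ser795 detected by antibody ELISA (TMB, A450); % of control, IC50 from background-subtracted inhibition curves.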
A general note: An ELISA detects its analyte on a solid surface through an enzyme-linked reagent.

The target of the next data set is T2, cyclin E/CDK2 enzyme (Homo sapiens, UniProt P24941).
T2 construct: made in house; host or cells: Sf9 insect cells, recombinant baculovirus
In words: CDK2 ELISA kinase assay (phospho-Rb ser 795 detection). It is filed as biochemical. The settings on record: In Vitro Enzyme Assays, read-out: CDK2 IC50. Put shortly:
as §1

The target in another data set is T3, cyclin B/CDK1 enzyme (Homo sapiens, UniProt P06493).
T3 construct: purchased New England BioLabs; host or cells: Sf9 insect cells, recombinant baculovirus
T3 sequence (P06493 whole entry): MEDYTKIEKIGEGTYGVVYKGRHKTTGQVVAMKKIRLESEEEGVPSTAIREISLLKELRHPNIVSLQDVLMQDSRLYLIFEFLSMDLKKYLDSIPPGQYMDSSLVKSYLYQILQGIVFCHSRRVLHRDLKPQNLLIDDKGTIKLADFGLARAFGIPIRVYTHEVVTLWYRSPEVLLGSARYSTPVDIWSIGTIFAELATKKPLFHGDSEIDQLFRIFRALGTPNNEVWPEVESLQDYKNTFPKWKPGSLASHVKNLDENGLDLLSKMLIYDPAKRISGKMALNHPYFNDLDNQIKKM
T3 sequence (P14635 whole entry partner): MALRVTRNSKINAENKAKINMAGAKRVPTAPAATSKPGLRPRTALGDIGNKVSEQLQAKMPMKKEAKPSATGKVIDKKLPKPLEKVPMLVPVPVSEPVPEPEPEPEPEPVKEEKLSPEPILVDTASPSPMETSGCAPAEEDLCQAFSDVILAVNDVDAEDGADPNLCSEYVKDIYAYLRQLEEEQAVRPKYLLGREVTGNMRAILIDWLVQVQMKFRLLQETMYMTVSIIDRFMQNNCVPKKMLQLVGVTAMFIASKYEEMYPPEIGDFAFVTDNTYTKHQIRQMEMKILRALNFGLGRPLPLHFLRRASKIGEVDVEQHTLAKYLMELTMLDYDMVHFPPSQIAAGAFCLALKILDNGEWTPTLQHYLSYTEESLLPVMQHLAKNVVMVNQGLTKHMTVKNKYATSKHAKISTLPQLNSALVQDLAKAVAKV
Briefly: CDK1 ELISA kinase assay (phospho-Rb ser 795 detection). The data set is classed as biochemical. As to conditions: In Vitro Enzyme Assays, read-out: CDK1 IC50. An outline of the steps: as §1

The next data set concerns BT474. In words: Cytotoxicity assay (SRB), BT474. It is filed as cell-based. The settings on record: Homo sapiens, BT-474, 144 h, BT474 cells, SRB, 6 days; read-out: In Vitro Cellular Activity IC50 BT474. Put shortly: (§2)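 Growth inhibition, SRB method: 3-day continuous compound exposure for HCT-116, LoVo and MCF-7 and 6-day exposure for BT474. Absorbance at 540 nm reflects surviving cell protein relative to controls.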

Another data set deals with HCT-116. Briefly: Cytotoxicity assay (SRB), HCT-116. The settings on record: Homo sapiens, HCT-116, 72 h, HCT116 cells, SRB, three days; read-out: In Vitro Cellular Activity IC50 HCT116. It is filed as cell-based. An outline of the steps:
as §2

The next data set relates to LoVo. In words: Cytotoxicity assay (SRB), LoVo. It is filed as cell-based. The settings on record: Homo sapiens, LoVo, 72 h, LoVo cells, SRB, three days; read-out: In Vitro Cellular Activity IC50 LOVO. Put shortly:
as §2

The next data set deals with MCF-7. In words: Cytotoxicity assay (SRB), MCF-7. The data set is classed as cell-based. As to conditions: Homo sapiens, MCF7, 72 h, MCF-7 cells, SRB, three days; read-out: In Vitro Cellular Activity IC50 MCF-7. Put shortly: as §2
Another data set has as its system SK-UT-1B. In words: In Vitro Cellular Activity (Table III), SK-UT-1B. It is filed as cell-based. As to conditions: Homo sapiens, Skut1B; SK-UT-1B cells.

SMILES strings stand for the structures.

T1 sequence (P11802 whole entry, species assumed): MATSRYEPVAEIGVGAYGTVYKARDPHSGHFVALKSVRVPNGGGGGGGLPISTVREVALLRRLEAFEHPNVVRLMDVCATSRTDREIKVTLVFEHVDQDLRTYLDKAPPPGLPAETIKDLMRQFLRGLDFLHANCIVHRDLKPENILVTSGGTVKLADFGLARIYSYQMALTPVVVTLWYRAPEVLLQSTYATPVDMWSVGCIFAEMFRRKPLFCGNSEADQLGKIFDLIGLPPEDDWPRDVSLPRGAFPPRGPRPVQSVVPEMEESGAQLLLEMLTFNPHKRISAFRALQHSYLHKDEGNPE
T1 sequence (P24385 whole entry partner, species assumed): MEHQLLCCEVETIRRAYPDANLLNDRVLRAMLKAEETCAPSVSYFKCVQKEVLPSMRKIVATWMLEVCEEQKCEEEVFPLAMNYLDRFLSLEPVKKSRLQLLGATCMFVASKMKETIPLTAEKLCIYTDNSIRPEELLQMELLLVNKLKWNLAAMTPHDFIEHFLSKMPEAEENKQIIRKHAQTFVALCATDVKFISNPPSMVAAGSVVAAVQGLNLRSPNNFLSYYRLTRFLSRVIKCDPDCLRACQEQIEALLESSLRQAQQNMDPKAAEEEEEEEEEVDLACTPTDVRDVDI

Take `COCC1CCCN1Cc1ccc(N/C=C2\C(=O)NC(=O)c3ccc(Br)cc32)cc1` (stereo in doubt) [Example 39]: the melting point lay within 129 to 130 °C. Also, on cyclin D1/cdk 4 enzyme, the IC50 stood at 1.1 µM. Moreover, the IC50 on cyclin E/CDK2 enzyme is greater than 50 µM. The IC50 on cyclin B/CDK1 enzyme is greater than 50 µM. For the same compound, the IC50 in the data set on BT474 was 7.9 µM. For the same compound, the IC50 with HCT-116 was found to be 7.5 µM. In the data set on LoVo, the IC50 was 9.4 µM. In addition, in the data set on MCF-7, the IC50 is 6.3 µM. This compound had an IC50 with SK-UT-1B of 10 µM.

For `COc1ccc(N/C=C2\C(=O)NC(=O)c3ccccc32)cc1` [Example 1, (4Z)-4-{[(4-Methoxyphenyl)amino]methylene}isoquinoline-1,3(2H,4H)-dione], the melting point was in the range of 150 to 151 °C. In addition, at cyclin D1/cdk 4 enzyme, the IC50 was determined as 38 µM. Moreover, the IC50 on cyclin E/CDK2 enzyme stood at 18.9 µM. The IC50 on cyclin B/CDK1 enzyme was greater than 36 µM. In the data set on BT474, the IC50 was 43 µM. Besides, in the data set on HCT-116, the IC50 was 29 µM. The half-maximal inhibitory concentration (IC50) in the data set with LoVo was determined as 30 µM. Moreover, in the data set on MCF-7, the IC50 worked out at 19 µM. In the data set on SK-UT-1B, the IC50 is greater than 36 µM.

As for `CN1CCN(c2ccc(N/C=C3\C(=O)NCc4ccccc43)cc2)CC1` [Example 2, (4Z)-4-({[4-(4-Methyl-1-piperazinyl)phenyl]amino}methylene)-1,4-dihydro-3(2H)-isoquinolinone], the melting point is 186 to 187 °C (dec.). Moreover, the half-inhibitory concentration (IC50) on cyclin D1/cdk 4 enzyme turned out to be 12.1 µM. Also, the 50% inhibitory concentration (IC50) on cyclin E/CDK2 enzyme was greater than 29 µM. In addition, on cyclin B/CDK1 enzyme, the IC50 was greater than 29 µM. Besides, the IC50 with BT474 amounted to 21.5 µM. Besides, the IC50 in the data set with HCT-116 was 7.4 µM. For the same compound, in the data set with LoVo, the half-inhibitory concentration (IC50) came out at 7.8 µM. Besides, in the data set on MCF-7, the IC50 was found to be 6.7 µM. For the same compound, inhibition in the data set with SK-UT-1B was half-maximal at 4.3 µM (IC50).

The compound `O=C1NC(=O)c2ccccc2/C1=C/Nc1ccc2ncccc2c1` [Example 8, (4Z)-4-[(Quinolin-6-ylamino)methylene]isoquinoline-1,3(2H,4H)-dione] had a melting point of 277 to 278 °C. In addition, the IC50 on cyclin D1/cdk 4 enzyme was greater than 50 µM. For the same compound, the IC50 at cyclin E/CDK2 enzyme was greater than 32 µM. Further, on cyclin B/CDK1 enzyme, the IC50 was greater than 32 µM. Also, in the data set with BT474, the IC50 was greater than 50 µM. Besides, in the data set on HCT-116, the IC50 is greater than 50 µM. Moreover, in the data set on LoVo, the IC50 was greater than 50 µM. In the data set on MCF-7, the IC50 is greater than 50 µM. Further, in the data set with SK-UT-1B, the midpoint of inhibition, the IC50, lay at 8.9 µM.

On to `O=C1NC(=O)c2ccccc2/C1=C\c1ccc(O)cc1` [Example 11, (4E)-4-(4-hydroxybenzylidene)isoquinoline-1,3(2H,4H)-dione], for which the melting point lay in the range of 242 to 243 °C. The IC50 on cyclin D1/cdk 4 enzyme is greater than 50 µM. Also, at cyclin E/CDK2 enzyme, the IC50 was greater than 37 µM. Also, the IC50 on cyclin B/CDK1 enzyme was greater than 37 µM. Further, in the data set on BT474, the half-maximal inhibitory concentration (IC50) is greater than 50 µM. In addition, in the data set with HCT-116, the IC50 was 2.3 µM. Further, the IC50 in the data set on LoVo came out at 6.8 µM. For the same compound, the IC50 in the data set on MCF-7 is 18 µM. In addition, in the data set with SK-UT-1B, the IC50 was greater than 36 µM.

`O=C1NC(=O)c2ccccc2/C1=C/Nc1ccc(CN2CCC(O)CC2)cc1` [Example 23, (4Z)-4-[({4-[(4-Hydroxypiperidin-1-yl)methyl]phenyl}amino)methylene]isoquinolin-1,3(2H,4H)-dione]: the melting point is 224 to 225 °C. For the same compound, the IC50 at cyclin D1/cdk 4 enzyme stood at 5.15 µM. On cyclin E/CDK2 enzyme, the IC50 was 26 µM. Also, the IC50 at cyclin B/CDK1 enzyme was greater than 26 µM. For the same compound, the IC50 in the data set on HCT-116 came out at 10.5 µM. In the data set on MCF-7, the IC50 amounted to 8.7 µM. The compound further registered an IC50 in the data set with SK-UT-1B of 16.3 µM.

Take `O=C1NC(=O)c2ccccc2/C1=C/Nc1ccc(CN2CCCCCC2)cc1` [Example 26, (4Z)-4-({[4-(Azepan-1-ylmethyl)phenyl]amino}methylene)isoquinoline-1,3(2H,4H)-dione]: the melting point is 198 to 200 °C. Moreover, the IC50 on cyclin D1/cdk 4 enzyme stood at 4.3 µM. Moreover, the IC50 on cyclin E/CDK2 enzyme is greater than 27 µM. The IC50 on cyclin B/CDK1 enzyme is greater than 27 µM. The IC50 in the data set with HCT-116 came out at 7.3 µM. Moreover, the half-inhibitory concentration (IC50) in the data set on MCF-7 is 8 µM. The IC50 with SK-UT-1B is 6.1 µM.

Take `CN(C(=O)CN1CCCCC1)c1ccc(N/C=C2\C(=O)NC(=O)c3ccccc32)cc1` [Example 29, N-(4-{[(Z)-(1,3-Dioxo-2,3-dihydroisoquinolin-4(1H)-ylidene)methyl]amino}phenyl)-1,3(2H,4H)-dione N-Methyl-2-piperidin-1-ylacetamide]: the melting point lay in the range of 223 to 224 °C. In addition, the IC50 on cyclin D1/cdk 4 enzyme was 15 µM. For the same compound, the IC50 at cyclin E/CDK2 enzyme is greater than 23 µM. In addition, the IC50 at cyclin B/CDK1 enzyme is greater than 23 µM. Also, the IC50 in the data set with BT474 was found to be 21 µM. Further, in the data set on HCT-116, the IC50 was 21 µM. Also, the IC50 in the data set with LoVo is 19 µM. Moreover, the IC50 with MCF-7 came out at 12 µM. In addition, in the data set on SK-UT-1B, the IC50 turned out to be 17 µM.

For the compound `O=C1NC(=O)c2ccc(Br)cc2/C1=C/NCc1ccncc1` [Example 31, (4Z)-6-Bromo-4-{[(pyridin-4-ylmethyl)amino]methylene}isoquinoline-1,3(2H,4H)-dione], the melting point lay in the range of 258 to 259 °C. The IC50 on cyclin D1/cdk 4 enzyme is greater than 50 µM. Besides, the IC50 at cyclin E/CDK2 enzyme came to 2.4 µM. In addition, the IC50 at cyclin B/CDK1 enzyme is greater than 50 µM. Also, the IC50 in the data set on BT474 is 41 µM. In addition, in the data set on HCT-116, the IC50 was determined as 31 µM. Further, the IC50 in the data set with LoVo is greater than 50 µM. For the same compound, the IC50 in the data set with MCF-7 is greater than 50 µM. Moreover, the IC50 with SK-UT-1B was greater than 50 µM.

`COC[C@H]1CCCN1Cc1ccc(N/C=C2\C(=O)NC(=O)c3ccc(Br)cc32)cc1` [Example 38] showed a melting point of 129 to 130 °C. In addition, the IC50 at cyclin D1/cdk 4 enzyme is 1.1 µM. Also, on cyclin E/CDK2 enzyme, the IC50 is greater than 50 µM. Also, at cyclin B/CDK1 enzyme, the IC50 is greater than 50 µM. For the same compound, the IC50 in the data set on BT474 is 2.8 µM. In the data set with HCT-116, the IC50 was 7.3 µM. Besides, the IC50 with LoVo amounted to 7.9 µM. Moreover, in the data set on MCF-7, the IC50 stood at 3.7 µM. Also, 11 µM corresponded to half-maximal inhibition in the data set on SK-UT-1B (IC50).

The term IC50 denotes the concentration needed to halve the response being measured. A word on the melting point: it is the temperature of the solid-liquid transition.

The values are drawn from US7713994B2 (Wyeth LLC, priority 2005, dated 2010).
